Results taken from PubChem BioAssay AID1625 (Sanford-Burnham Center for Chemical Genomics, 2009).
pEC50: −log10 of the molar value. Active and inactive are the calls of the source.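 The calls were made as follows: active = z-score above 3 at 5 µM with at least 500 cells counted in the well; inconclusive = wells under 500 cells, flagged as cytotoxic or low count; inactive = the rest.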

What follows are compounds tested on MIN6 insulin promoter-GFP reporter, high-content imaging (assay: insulin promoter activators in MIN6 cells, imaging, high-content screening, mouse beta cells (AID 1625)).

| Structure (SMILES) | EC50 | pEC50 |
| --- | --- | --- |
| CN1CC=C2C(C#N)=C(N)C(C#N)(C#N)C(c3cccc(Cl)c3Cl)C2C1 (stereo not drawn) | 11.9 µM (inactive) | – |
| CN1CC=C2C(C#N)=C(N)C(C#N)(C#N)[C@H](c3cccs3)[C@H]2C1 | 11.1 µM (inactive) | – |
| CCCN1C=CC(=CC=C(C#N)C#N)C=C1 | 10.4 µM (inactive) | – |
| COc1ccc(C(=O)c2sc3nc(-c4ccccc4)ccc3c2N)cc1OC | > 16 µM (inactive) | – |
| CCOC(=O)N1CCN(S(=O)(=O)c2ccc3c(c2)oc(=O)n3C)CC1 | > 16 µM (inactive) | – |
| C=CCN1C(=O)/C(=C/C=C2/N(CC)c3ccc(S(=O)(=O)N(C)C)cc3N2CC)SC1=S | > 16 µM (inactive) | – |
| COc1ccc(-c2ccc3c(N)c(C(=O)c4cccc(OC)c4)sc3n2)cc1 | > 16 µM (inactive) | – |
| N#CC(C#N)=C1C=C2C=C(N3CCCCC3)CCC2CC1 (stereo not drawn) | – | 6.19 |
| Cc1cc(/C=C2\NC(=S)N(C)C2=O)ccc1N1CCCC1 | – | 5.05 |
| N#CC1=C(N)C(C#N)(C#N)[C@H](c2ccoc2)[C@H]2CN(Cc3ccccc3)CC=C12 | – | 5.01 |
| CC(=O)c1cc(NC(=O)c2ccc(Cl)cc2)c(=O)oc1/C=C/N(C)C | > 16 µM (inactive) | – |
| CCN(CC)c1ccc(/C=C(/C#N)c2nc3ccc(C)cc3[nH]2)c(OC(C)C)c1 | – | 5.54 |
| CNC(=O)c1c(NC(=O)c2ccc(S(=O)(=O)N3CCCc4ccccc43)cc2)sc2c1CCN(C)C2 | > 16 µM (inactive) | – |
| Nc1c(C(=O)N/N=C/c2cccnc2)oc2nc(-c3ccco3)cc(-c3ccco3)c12 | > 16 µM (inactive) | – |
| COc1cccc(/C=N/NC(=O)c2oc3nc(-c4ccccc4)cc(-c4ccco4)c3c2N)c1 | > 16 µM (inactive) | – |
| O=[N+]([O-])c1ccc(N/N=C/c2ccc[nH]2)cc1 | > 16 µM (inactive) | – |
| CCN(CC)c1ccc(/C=N/c2sc3c(c2C#N)C2CCN3CC2)c(O)c1 | – | 5.55 |
| O=[N+]([O-])c1ccc(N/N=C/c2cn(Cc3ccc(F)cc3)c3ccccc23)nc1 | > 16 µM (inactive) | – |
| CC1=CN2C(=N)/C(=C/c3ccc([N+](=O)[O-])o3)C(=O)N=C2S1 | > 16 µM (inactive) | – |
| Nc1c(C(=O)Nc2nc3ccccc3s2)sc2nc(-c3cccs3)ccc12 | 12.8 µM (inactive) | – |
| CN1CCN(c2ccc(/C=C3\C(=O)NC(=S)N(c4cccc(Br)c4)C3=O)o2)CC1 | > 16 µM (inactive) | – |
| CCCCN(C)C1=CC2=CC(=C(C#N)C#N)CCC2CC1 (stereo not drawn) | – | > 6.60 |
| CC(=O)Nc1sc(/C(C#N)=C/c2ccc(Cl)c(Cl)c2)nc1-c1ccc(C)cc1 | > 16 µM (inactive) | – |
| O=[N+]([O-])c1ccc(N(c2ccccc2)c2ccccc2)cc1 | > 16 µM (inactive) | – |
| Cc1cc(C)cc(N=Cc2[nH]c3ccc(Br)c(Cl)c3c2O)c1 | – | 5.47 |

| Structure (SMILES) | EC50 | pEC50 |
| --- | --- | --- |
| N#Cc1c(NC(=S)NC(=O)c2ccccc2)sc2c1CCN(CCc1ccccc1)C2 | – | 5.15 |
| CCCCCn1nc(-c2ccccc2)c2nc3ccccc3nc21 | – | 5.06 |
| CCCN1CC=C2C(C#N)=C(N)C(C#N)(C#N)C(c3cc(OC)ccc3OC)C2C1 (stereo not drawn) | – | 5.30 |
| Nc1c(C(=O)C2CC2)sc2nc(-c3cccs3)cc(C(F)(F)F)c12 | – | 5.38 |
| O=C(OCCN1C(=O)c2cccc3c(N4CCOCC4)ccc(c23)C1=O)c1ccc(Cl)cc1Cl | 12.1 µM (inactive) | – |
| O=C1c2cccc3c(N4CCCCC4)ccc(c23)C(=O)N1c1ccccc1O | > 16 µM (inactive) | – |
| COc1cc(/C=C(\C#N)c2nc3ccccc3o2)ccc1O | > 16 µM (inactive) | – |
| O=[N+]([O-])c1ccc(-c2ccc(/C=N/Nc3nc(N4CCCCC4)nc(N4CCCCC4)n3)o2)cc1 | > 16 µM (inactive) | – |
| CCCN1C=CC(=C/C=C(\C#N)C(=O)OCC)C=C1 | > 16 µM (inactive) | – |
| C=CCN1C(=O)/C(=C\C=C2\N(C)c3ccccc3C2(C)C)SC1=S | > 16 µM (inactive) | – |
| CCCN1C(=O)c2cccc3c(N4CCCCC4)ccc(c23)C1=O | > 16 µM (inactive) | – |
| COc1ccc2c(c1)NC(c1ccc(N(C)C)cc1)c1cccn1-2 (stereo not drawn) | > 16 µM (inactive) | – |
| C=CCN1C(=O)/C(=C/c2ccc(N(C)C)cc2)S/C1=N\c1nnc(CC)s1 | – | 5.41 |
| N#C/C(=C/c1ccc(N2CCCCCC2)o1)c1ccc(Cl)cc1 | 10.1 µM (inactive) | – |
| CCN(CC)c1ccc(/C=C2/SC(=O)N(C(C)C)C2=O)o1 | – | 5.37 |
| Cc1oc(C)c2c(=O)ccc3c(c12)OC(N)=C(C#N)C3c1ccccc1Cl (stereo not drawn) | 11.4 µM (inactive) | – |
| CCN(CC)c1ccc(C=C(c2nnnn2-c2ccccc2)c2nnnn2-c2ccccc2)cc1 | > 16 µM (inactive) | – |
| CC(=O)c1ccc2cccc3c2c1N=CN3C | > 16 µM (inactive) | – |
| Cc1cc2nc3c(=O)n(C4CCCCC4)c(=O)[nH]c3nc2cc1N | – | 5.06 |
| COc1cc2c3nnc(-c4ccc(F)cc4)c-3cn(Cc3ccc(F)cc3)c2cc1OC | – | 5.27 |
| CC(C)(C)C(=O)c1sc2nc(-c3cccs3)cc(C(F)(F)F)c2c1N | > 16 µM (inactive) | – |
| O=[N+]([O-])c1ccc(N/N=C/c2c[nH]c3ccccc23)cc1 | 10.8 µM (inactive) | – |
| CCN(CC)C(=O)c1sc2nc(-c3cccs3)cc(-c3cccs3)c2c1N | > 16 µM (inactive) | – |
| COC(=O)c1cc2c(-c3ccccc3)c(C)c3ccccn3c-2c1C(=O)OC | > 16 µM (inactive) | – |
| Cc1cc(N2CCCC2)ccc1/C=C1/C(=O)N(C)C(=S)N1C | > 16 µM (inactive) | – |

| Structure (SMILES) | EC50 | pEC50 |
| --- | --- | --- |
| CCN1CC=C2C(C#N)=C(N)C(C#N)(C#N)C(c3cc(Cl)ccc3Cl)C2C1 (stereo not drawn) | – | 5.06 |
| O=[N+]([O-])c1ccc(C2=NN(c3ccccc3)C(c3ccco3)C2)cc1 (stereo not drawn) | – | 5.04 |
| Cc1csc(NC(=O)c2sc3nc(-c4cccs4)ccc3c2N)n1 | > 16 µM (inactive) | – |
| COCCNC(=S)N/N=C/c1ccc(-c2ccc([N+](=O)[O-])cc2)o1 | > 16 µM (inactive) | – |
| O=[N+]([O-])c1ccc(N/N=C/c2sc(N3CCOCC3)nc2-c2ccccc2)c(S(=O)(=O)Nc2ccccc2Cl)c1 | > 16 µM (inactive) | – |
| N#C/C(=C\c1ccc(N2CCOCC2)o1)C(=O)NCCc1ccccc1 | > 16 µM (inactive) | – |
| CN1/C(=C\C=C2/C(=O)Oc3ccccc3C2=O)C(C)(C)c2ccccc21 | – | 5.59 |
| CC1=C/C(=C\C=C(C#N)C#N)N(C)c2ccccc21 | > 16 µM (inactive) | – |
| CCOCCCNc1nc2c(C)cccn2c(=O)c1/C=C1\SC(=S)N(C(C)CC)C1=O (stereo not drawn) | – | 5.39 |
| COc1ccc(C2C(C(C)=O)=C(C)N=c3s/c(=C\c4cc(C)n(C)c4C)c(=O)n32)c(OC)c1 (stereo not drawn) | – | 5.05 |
| O=C1/C(=C/c2ccc(N3CCCC3)cc2)NC(=S)N1C1CC1 | – | 5.13 |
| N=c1oc2c3c4c(cc2cc1C(=O)Nc1ccccc1)CCCN4CCC3 | – | 6.16 |
| Cc1ccc(CN=Cc2[nH]c3ccc(Br)c(Cl)c3c2O)cc1 | > 16 µM (inactive) | – |
| CCCCOc1ccc(-c2cc(C(F)(F)F)c(C#N)c(SCC(=O)O)n2)cc1 | > 16 µM (inactive) | – |
| COc1ccc2c(C)cc(SCC(=O)N(C)C3CCS(=O)(=O)C3)nc2c1 (stereo not drawn) | > 16 µM (inactive) | – |
| CN1C2CCC1/C(=C/c1cccn1C)C(=O)/C2=C\c1cccn1C | > 16 µM (inactive) | – |
| CCN1C=CC2=C(C#N)C(N)C(C#N)(C#N)C(c3ccccc3C(F)(F)F)C2C1 (stereo not drawn) | – | 5.33 |
| CC(=O)n1c(C=Nc2ccccc2)c(O)c2ccccc21 | 10.1 µM (inactive) | – |
| CCc1cccc2cc3c(N)c(C(=O)Nc4ccc(S(=O)(=O)N5CCCC5)cc4)sc3nc12 | 10.2 µM (inactive) | – |
| CC(C)N1CC=C2C(C#N)=C(N)C(C#N)(C#N)C(c3ccccc3)C2C1 (stereo not drawn) | – | 5.22 |
| Cc1n[nH]c(C)c1N1C(=O)c2cccc3c(N4CCCCCC4)ccc(c23)C1=O | – | 5.04 |
| CC(C)N1CCc2c(sc(NC(=O)c3cc4cc([N+](=O)[O-])ccc4s3)c2C(N)=O)C1 | > 16 µM (inactive) | – |
| Cc1cccc(N=Cc2[nH]c3ccc(Br)c(Cl)c3c2O)c1 | – | 5.31 |
| CCOc1cc(N(CC)CC)ccc1/C=C(/C#N)c1nc2ccccc2[nH]1 | – | 5.35 |
| COc1cc([C@@H]2[C@H]3CN(C)CC=C3C(C#N)=C(N)C2(C#N)C#N)cc2c1OCO2 | – | 5.06 |

| Structure (SMILES) | EC50 | pEC50 |
| --- | --- | --- |
| O=c1oc2c3c4c(cc2c(C(F)(F)F)c1CCN1CCOCC1)CCCN4CCC3 | – | 5.22 |
| COC(=O)c1cc(NC(=O)c2ccccc2)c(=O)oc1/C=C/Nc1ccc(Oc2ccccc2)cc1 | – | 5.19 |
| CCN1/C(=C/C=C/c2oc3ccc4ccccc4c3[n+]2CC)Oc2ccc3ccccc3c21 | – | > 6.60 |
| N#Cc1c(-c2ccco2)cc(C2CC2)nc1SCC(=O)c1ccccc1 | > 16 µM (inactive) | – |
| CCCCNc1ccc2c3c(cccc13)C(=O)N(CCCC)C2=O | – | 5.77 |
| CCNc1ccc2noc3c2c1C(=O)c1ccccc1-3 | > 16 µM (inactive) | – |
| CCOC(=O)CN1C(=O)S/C(=C/c2ccc(N3CCCCC3)o2)C1=O | – | 5.08 |
| N#Cc1c(C(F)(F)F)cc(-c2ccccc2)nc1SCc1nc(N)nc(N2CCOCC2)n1 | – | 5.43 |
| C=CCN1C(=O)/C(=C/c2ccc(N3CCOCC3)o2)C(=O)NC1=S | > 16 µM (inactive) | – |
| CC(=O)C1=C(C)NC(SCC(=O)c2ccc(Cl)c(Cl)c2)=C(C#N)C1c1ccco1 (stereo not drawn) | > 16 µM (inactive) | – |
| CN1CC=C2C(C#N)=C(N)C(C#N)(C#N)C(c3ccncc3)C2C1 (stereo not drawn) | > 16 µM (inactive) | – |
| CCN1CCN(C2=CC3=CC(=C(C#N)C#N)CCC3CC2)CC1 (stereo not drawn) | – | 5.55 |
| Cc1ccc2nc(/C(C#N)=C\c3ccc(N4CCOCC4)o3)[nH]c2c1 | – | 5.46 |
| O=c1[nH]c2ccccc2nc1/C=C/c1ccc(F)cc1 | > 16 µM (inactive) | – |
| CCN(CC)c1ccc(/C=C(\C#N)C(=O)c2ccc(Br)cc2)cc1 | 12 µM (inactive) | – |
| N#C/C(=C/c1ccc(N2CCCCC2)o1)C(=O)NCCc1c[nH]c2ccccc12 | – | 5.29 |
| CCN1CC=C2C(C1)C(c1ccc(Cl)s1)C(C#N)=C(N)C2(C#N)C#N (stereo not drawn) | – | 5.05 |
| O=C(O)c1ccccc1N/N=C/c1c(Sc2nnnn2-c2ccccc2)nc2ccccn2c1=O | – | 5.22 |
| CN1CC=C2C(C#N)=C(N)C(C#N)(C#N)C(Cc3ccccc3)C2C1 (stereo not drawn) | 11.7 µM (inactive) | – |
| CN(C)c1ccc(/C=C2\N=C(c3ccc(Cl)c([N+](=O)[O-])c3)NC2=O)cc1 | > 16 µM (inactive) | – |
| Cc1nonc1NC(=O)CSc1nc2c(C)cccc2cc1C#N | > 16 µM (inactive) | – |
| CCOC(=O)CC1C(=O)NCCN1c1nc2ccc(C)cn2c(=O)c1/C=C1\SC(=S)N(CC(C)C)C1=O (stereo not drawn) | – | 5.16 |
| N#C/C(=C/c1ccc(N2CCOCC2)o1)c1ccc(Cl)cc1 | – | 5.04 |
